According to US9518094B2 (priority 2010, dated 2016):
≈ marks a conversion by molar mass, not a printed value. Entries after “also recorded” stand apart in the source; their conditions may differ. Where two headings read alike, the source gives them in different places.

What was measured:
[1] = test system: patients; experiment: Toxicity and adverse events in clinical studies of Compound I; conditions: early development; out of more than 450 patients
[2] = test system: patients; conditions: human, in vivo
[3] = Solubility assessment of Compound I Form A in solvents and solvent mixtures (visual observation); assay type: physicochemical
[4] = Slurry interconversion of solid forms with Form A; assay type: physicochemical; conditions: slurry of the form together with Form A; resulting form (time)
[5] = Solid form stability under ambient conditions; assay type: physicochemical
Description: Samples were prepared from Compound I Form A solids or from samples generated from these solids. Form designation for the materials was based on X-ray powder diffraction (XRPD). Care was taken to protect samples from light, unless stated otherwise. Prior to characterization, solids were stored as follows: Form A and Form B (may have contained Form A solids as well) under ambient conditions, Form E and Form H over desiccant in a freezer, Form C in contact with mother liquor in a refrigerator, Form D in contact with mother liquor in a freezer, and Form I in contact with mother liquor under ambient conditions or in a freezer. Due to apparent instability of Form D, all characterization data except solution proton nuclear magnetic resonance spectroscopy (H-NMR) were collected for Form D on the same day. Although the ^1H-NMR analysis was not run until a few days later, the solution for the analysis was prepared on the same day as the rest of the characterization.
A crystal prepared from cold acetone solution was indexed. The indexing solution was determined to be an orthorhombic unit cell with the following cell parameters and calculated volume: a=9.093, b=15.581, c=23.141 Å, V=3278.57(9) Å^3. The formula weight was determined to be 598.81 g/mol. The cell parameters are similar to the cell obtained from the Compound I Form J crystal structure. […]

[6] = Form N solvent removal attempts (heating, vacuum drying, slurry), resulting form by XRPD; assay type: physicochemical; conditions: for XRPD result after vacuum drying: 43 mg, 42° C. vac dry 22 hours at 20 mTorr
Description: The resulting solids were characterized by proton NMR spectroscopy. […] Subsequently, the dried sample was characterized by DSC. The observed results are subject to the conditions used at the time of analysis. […] The remaining solids (43 mg) were dried for approximately 22 hours in a vacuum oven at approximately 42° C., at approximately 20 mTorr. The weight loss was not determined but the dried solids were characterized by XRPD.
Solids were recovered via vacuum filtration, washing with acetonitrile (4×1 mL). The solids were left on the filter under vacuum for several minutes to dry the solids. […] In another embodiment, 309.5 mg of solid were slurried in water (4 mL) for approximately 24.5 hours. Solids were recovered via vacuum filtration, washing with water (2×1 mL). The solids were left on the filter under vacuum for approximately 1.5 hours to dry the solids.

C/C=C1\NC(=O)[C@H]2CSSCC/C=C/[C@H](CC(=O)N[C@H](C(C)C)C(=O)N2)OC(=O)[C@H](C(C)C)NC1=O [Compound I, romidepsin]
deaths during clinical investigations [1]: 6
Severity of observed toxicities [2]: mild to moderate
serial serum troponin levels and multiple gated acquisition (MUGA) scans [2]: consistently normal

C/C=C1\NC(=O)[C@H]2CSSCC/C=C/[C@H](CC(=O)N[C@H](C(C)C)C(=O)N2)OC(=O)[C@H](C(C)C)NC1=O [Form A, romidepsin]
solubility ([3]; 2,2,2-trifluoroethanol (TFE), organic solvent or mixture, thermodynamic from solid, 2,2,2-trifluoroethanol (TFE), ambient temperature, reported values <= actual solubility, approximate, read-out: Solubility): > 100 mg/mL
solubility ([3]; 2,2,2-trifluoroethanol (TFE), ambient temperature, reported values <= actual solubility, approximate, listed as Compound I, Form A): 158.9 mg/mL (≈ 294 mM)
solubility ([3]; 2-butanone (MEK), organic solvent or mixture, thermodynamic from solid, 2-Butanone (MEK), ambient temperature, reported values <= actual solubility, approximate, read-out: Solubility): 12.5 mg/mL (≈ 23.1 mM)
solubility ([3]; (0.1:0.1) TFE:DCM, organic solvent or mixture, thermodynamic from solid, (0.1:0.1) TFE:DCM, ambient temperature, reported values <= actual solubility, approximate, read-out: Solubility): 97 mg/mL (≈ 179 mM)
solubility ([3]; (0.5:0.1) acetone:DCM, organic solvent or mixture, thermodynamic from solid, (0.5:0.1) Acetone:DCM, ambient temperature, reported values <= actual solubility, approximate, read-out: Solubility): 38 mg/mL (≈ 70.3 mM)
solubility ([3]; (1:0.1) 2-butanone:TFE, organic solvent or mixture, thermodynamic from solid, (1:0.1) 2-Butanone:TFE, ambient temperature, reported values <= actual solubility, approximate, read-out: Solubility): 20.6 mg/mL (≈ 38.1 mM)
solubility ([3]; (1:0.1) toluene:TFE, organic solvent or mixture, thermodynamic from solid, (1:0.1) Toluene:TFE, ambient temperature, reported values <= actual solubility, approximate, read-out: Solubility): 21.4 mg/mL (≈ 39.6 mM)
solubility ([3]; (1:0.2) acetonitrile (ACN):TFE, organic solvent or mixture, thermodynamic from solid, (1:0.2) Acetonitrile (ACN):TFE, ambient temperature, reported values <= actual solubility, approximate, read-out: Solubility): 17.9 mg/mL (≈ 33.1 mM)
solubility ([3]; (1:0.2) ethanol:TFE, organic solvent or mixture, thermodynamic from solid, (1:0.2) Ethanol:TFE, ambient temperature, reported values <= actual solubility, approximate, read-out: Solubility): 16.3 mg/mL (≈ 30.1 mM)
solubility ([3]; (1:0.5) dioxane:acetone, organic solvent or mixture, thermodynamic from solid, (1:0.5) Dioxane:Acetone, ambient temperature, reported values <= actual solubility, approximate, read-out: Solubility): 13.3 mg/mL (≈ 24.6 mM)
solubility ([3]; (1:1) 2-propanol:acetone, 60 °C, organic solvent or mixture, thermodynamic from solid, (1:1) 2-Propanol:Acetone, hot plate set to 60° C., reported values <= actual solubility, approximate, read-out: Solubility): 11.5 mg/mL (≈ 21.3 mM)
solubility ([3]; (1:1) ethanol/IPA, 70 °C, organic solvent or mixture, thermodynamic from solid, (1:1) Ethanol/IPA, hot plate set to 70° C., reported values <= actual solubility, approximate, read-out: Solubility): 28 mg/mL (≈ 51.8 mM)
solubility ([3]; (1:3) ethanol/IPA, 70 °C, organic solvent or mixture, thermodynamic from solid, (l:3) Ethanol/IPA, hot plate set to 70° C., reported values <= actual solubility, approximate, read-out: Solubility): 10 mg/mL (≈ 18.5 mM)
solubility ([3]; (1.5:0.5) water:DCM, aqueous with cosolvent or surfactant or cyclodextrin, thermodynamic from solid, (1.5:0.5) Water:DCM, ambient temperature, reported values <= actual solubility, approximate, read-out: Solubility): 12.4 mg/mL (≈ 22.9 mM)
solubility ([3]; (1.5:0.8) ethyl acetate:acetone, organic solvent or mixture, thermodynamic from solid, (1.5:0.8) Ethyl Acetate:Acetone, ambient temperature, reported values <= actual solubility, approximate, read-out: Solubility): 8.9 mg/mL (≈ 16.5 mM)
solubility ([3]; (1.5:1) heptane:DCM, 60 °C, organic solvent or mixture, thermodynamic from solid, (1.5:1) Heptane:DCM, hot plate set to 60° C., reported values <= actual solubility, approximate, read-out: Solubility): 8 mg/mL (≈ 14.8 mM)
solubility ([3]; (1.5:1) methanol:TFE, 60 °C, organic solvent or mixture, thermodynamic from solid, (1.5:1) Methanol:TFE, hot plate set to 60° C., reported values <= actual solubility, approximate, read-out: Solubility): 8.7 mg/mL (≈ 16.1 mM)
solubility ([3]; (4.5:3) isopropyl ether:ethanol, organic solvent or mixture, thermodynamic from solid, (4.5:3) Isopropyl Ether:Ethanol, ambient temperature, reported values <= actual solubility, approximate, read-out: Solubility): 6.8 mg/mL (≈ 12.6 mM)
solubility ([3]; Acetone, ambient temperature, reported values <= actual solubility, approximate, listed as Compound I, Form A): 28.2 mg/mL (≈ 52.2 mM)
solubility ([3]; Dichloromethane (DCM), ambient temperature, reported values <= actual solubility, approximate, listed as Compound I Form A): over 100 mg/ml
solubility ([3]; Dimethylformamide (DMF), ambient temperature, reported values <= actual solubility, approximate, listed as Compound I Form A): over 100 mg/ml
solubility ([3]; Dimethylformamide (DMF), ambient temperature, reported values <= actual solubility, approximate, listed as Compound I, Form A): 248.5 mg/mL (≈ 460 mM)
solubility ([3]; acetone, organic solvent or mixture, thermodynamic from solid, Acetone, ambient temperature, reported values <= actual solubility, approximate, read-out: Solubility): 22.4 mg/mL (≈ 41.4 mM)
solubility ([3]; chloroform, organic solvent or mixture, thermodynamic from solid, Chloroform, ambient temperature, reported values <= actual solubility, approximate, read-out: Solubility): 26.5 mg/mL (≈ 49 mM)
solubility ([3]; ethanol (EtOH), organic solvent or mixture, thermodynamic from solid, Ethanol (EtOH), ambient temperature, reported values <= actual solubility, approximate, read-out: Solubility): 23.5 mg/mL (≈ 43.5 mM)
solubility ([3]; isopropanol (IPA), organic solvent or mixture, thermodynamic from solid, Isopropanol (IPA), ambient temperature, reported values <= actual solubility, approximate, read-out: Solubility): 4.6 mg/mL (≈ 8.51 mM)
solubility ([3]; majority of the solvents and solvent combinations tested, organic solvent or mixture, thermodynamic from solid, majority of solvent and solvent combinations tested, read-out: moderate solubility): > 10 mg/mL
solubility ([3]; nitromethane, organic solvent or mixture, thermodynamic from solid, Nitromethane, ambient temperature, reported values <= actual solubility, approximate, read-out: Solubility): 23.6 mg/mL (≈ 43.6 mM)
Slurry interconversion [4]: Remains A

C/C=C1\NC(=O)[C@H]2CSSCC/C=C/[C@H](CC(=O)N[C@H](C(C)C)C(=O)N2)OC(=O)[C@H](C(C)C)NC1=O [Form B, romidepsin]
Slurry interconversion [4]: A + B → A (2 hrs)

C/C=C1\NC(=O)[C@H]2CSSCC/C=C/[C@H](CC(=O)N[C@H](C(C)C)C(=O)N2)OC(=O)[C@H](C(C)C)NC1=O [Form C, romidepsin]
Slurry interconversion [4]: A + C → A (2 hrs)

C/C=C1\NC(=O)[C@H]2CSSCC/C=C/[C@H](CC(=O)N[C@@H](C(C)C)C(=O)N2)OC(=O)[C@H](C(C)C)NC1=O [Form D, romidepsin]
Slurry interconversion [4]: A + D → A, trace C
Form conversion under ambient conditions [5]: converts to Form A

C/C=C1\NC(=O)[C@H]2CSSCC/C=C/[C@H](CC(=O)N[C@H](C(C)C)C(=O)N2)OC(=O)[C@H](C(C)C)NC1=O [Form E, romidepsin]
Slurry interconversion [4]: A + E → A, trace E

C/C=C1\NC(=O)[C@H]2CSSCC/C=C/[C@H](CC(=O)N[C@H](C(C)C)C(=O)N2)OC(=O)[C@H](C(C)C)NC1=O [Form I, romidepsin]
Form conversion under ambient conditions ([5]; listed as Compound I Form I): converts to Form H

C/C=C1\NC(=O)[C@H]2CSSCC/C=C/[C@H](CC(=O)N[C@H](C(C)C)C(=O)N2)OC(=O)[C@H](C(C)C)NC1=O [Form N, romidepsin]
XRPD result after heating ([6]; 10.3 mg, heated to 180° C. by DSC (crimped)): Form A + 2 weak peaks
XRPD result after vacuum drying [6]: unknown + Form N
XRPD result after vacuum drying ([6]; listed as Compound I, Form N): contains XRPD peaks of Form N but exhibits additional unknown peaks
XRPD result after slurry ([6]; 152.4 mg, 1 mL acetonitrile, slurry 1 hour): pattern T
HR XRPD result after vacuum drying ([6]; 308.3 mg, RT vac dry 5 days at 5 mTorr): exhibited Form N; also recorded: Form N + weak peak
HR XRPD result after slurry ([6]; 309.5 mg, 4 mL water, slurry 24.5 hours): a mixture of Forms C and A; also recorded: Forms C + A + peaks ^g
